Source: US20240228562A1, “NOVEL LIPOCALIN MUTEINS SPECIFIC FOR CONNECTIVE TISSUE GROWTH FACTOR (CTGF)” (PIERIS PHARMACEUTICALS GMBH, priority 2021, published 2024)

Columns and labels:
[1] = system: CCL-206 lung fibroblasts co-cultured with primary murine Epcam-positive epithelial progenitor cells; assay: Lung organoid formation model; assay type: cell-based; details: 14 days treatment; nintedanib 100 nM; SEQ ID NO: 74 at 100 nM
Procedure: The effect of CTGF-targeting lipocalin muteins was analyzed using an organoid model for lung regeneration. In this model, CCL-206 lung fibroblasts are co-cultured with freshly isolated primary murine Epcam-positive epithelial progenitor cells, and the number of formed organoids is analyzed after 14 days. TGF-b1 pre-treatment of CCL-206 fibroblasts leads to an impaired organoid formation and resembles an impairment of lung regeneration as for example observed in lung disease, such as IPF. The impaired formation of organoids can be rescued by treatment with different drugs, such as nintedanib, which is used as a positive control in this model. […] Analysis of organoid numbers confirmed the impairment of organoid formation by TGF-b1 stimulation.

[2] = system: idiopathic pulmonary fibrosis (IPF); details: cited from earlier work; for Decline in lung function in IPF: FDA-approved drugs for IPF; for Tolerability in IPF patients: gastrointestinal and other drug-related tolerability issues
[3] = system: human melanoma cell lines; details: cited from earlier work

Compound	Effect on TGF-b1 impaired organoid formation [1]	Decline in lung function in IPF [2]	Tolerability in IPF patients [2]	Disease progression in patients suffering from IPF ([2]; phase 2 clinical trial)	Migration of human melanoma cell lines [3]
COC(=O)c1ccc2c(c1)NC(=O)/C2=C(\Nc1ccc(N(C)C(=O)CN2CCN(C)CC2)cc1)c1ccccc1 [nintedanib]	partially rescued	slowing down the decline in lung function	not well-tolerated		
Cc1ccc(=O)n(-c2ccccc2)c1 [pirfenidone]		slowing down the decline in lung function	not well-tolerated		
FG-3019/pamrevlumab: anti-CTGF monoclonal antibody in clinical trials				attenuated disease progression	inhibition of the migration
